Key:
[1] = system: SIV pseudotyped with the SARS-CoV-2 spike protein (Alpha); details: SIV pseudotyped with the spike protein (Alpha, 48 h)
[2] = system: SIV pseudotyped with the SARS-CoV-2 spike protein (Beta); details: SIV pseudotyped with the spike protein (Beta, 48 h)
[3] = system: ACE2–RBD interaction (Omicron variant RBD-Fc / His-tagged hACE2); type: biochemical, SARS-CoV-2; details: read-out: Inhibition of ACE2–RBD Interaction
[4] = system: SIV pseudotyped with the SARS-CoV-2 spike protein (wt); details: SIV pseudotyped with the spike protein (wt, 48 h)
[5] = system: SIV pseudotyped with the SARS-CoV-2 spike protein (Delta); details: SIV pseudotyped with the spike protein (Delta, 48 h)
[6] = system: SIV pseudotyped with the SARS-CoV-2 spike protein (Omicron); details: SIV pseudotyped with the spike protein (Omicron, 48 h)
[7] = system: pseudovirus with wt SARS-CoV-2 spike carrying E484K + N501Y
[8] = system: pseudovirus with wt SARS-CoV-2 spike carrying K417N

Compound | IC50 [1] | IC50 [2] | IC50 [3] | IC50 [4] | IC50 [5] | IC50 [6] | Reduction in inhibitory activity (virus neutralization) by combination of E484K and N501N [7] | Decrease of susceptibility of the virus to inhibition by mutation K417N, factor [8]
CC[C@H](C)[C@H](NC(=O)[C@H](CC(C)C)NC(=O)[C@H](CC(=O)O)NC(=O)[C@H](CO)NC(=O)[C@@H](NC(=O)[C@H](CCCNC(=N)N)NC(=O)[C@H](CCSC)NC(=O)[C@H](CO)NC(=O)[C@H](C)NC(=O)[C@H](CCC(=O)O)NC(=O)[C@H](C)NC(=O)[C@H](Cc1c[nH]cn1)NC(=O)CNC(=O)[C@H](CC(C)C)NC(=O)[C@H](CCC(=O)O)NC(=O)[C@H](CC(=O)O)NC(=O)[C@H](CC(C)C)NC(=O)[C@H](CC(C)C)NC(=O)[C@H](CCCNC(=N)N)NC(=O)[C@H](CCSC)NC(=O)[C@@H](NC(=O)[C@H](CCC(=O)O)NC(=O)[C@H](Cc1ccc(O)cc1)NC(=O)[C@@H](NC(=O)[C@H](CCCCN)NC(=O)[C@H](CCC(N)=O)NC(=O)[C@H](CC(C)C)NC(=O)[C@@H](NC(=O)[C@H](Cc1c[nH]c2ccccc12)NC(=O)[C@H](CCC(=O)O)NC(=O)[C@H](CCCCN)NC(=O)[C@H](CC(=O)O)NC(=O)COCCOCCNC(=O)CCCC[C@@H]1SC[C@@H]2NC(=O)N[C@@H]21)[C@@H](C)CC)[C@@H](C)CC)[C@@H](C)CC)C(C)C)C(=O)N[C@@H](Cc1ccc(O)cc1)C(=O)N[C@@H](CCC(=O)O)C(=O)N[C@@H](Cc1ccccc1)C(=O)N[C@@H](CCSC)C(=O)N[C@@H](CCCCN)C(=O)N[C@@H](CCCCN)C(=O)NCC(N)=O [LW25.1] | 8.38 ± 3.31 nM | > 500 nM | […] | 1.7 ± 0.11 nM | 0.71 ± 0.23 nM | > 500 nM |  | 
CC[C@H](C)[C@H](NC(=O)[C@H](CC(C)C)NC(=O)[C@H](CC(=O)O)NC(=O)[C@H](CO)NC(=O)[C@@H](NC(=O)[C@H](CCCNC(=N)N)NC(=O)[C@H](CCSC)NC(=O)[C@H](CO)NC(=O)[C@H](C)NC(=O)[C@H](CCC(=O)O)NC(=O)[C@H](C)NC(=O)[C@H](Cc1c[nH]cn1)NC(=O)CNC(=O)[C@H](CC(C)C)NC(=O)[C@H](CCC(=O)O)NC(=O)[C@H](CC(=O)O)NC(=O)[C@H](CC(C)C)NC(=O)[C@H](CC(C)C)NC(=O)[C@H](CCCNC(=N)N)NC(=O)[C@H](CCSC)NC(=O)[C@@H](NC(=O)[C@H](CCC(=O)O)NC(=O)[C@H](Cc1ccc(O)cc1)NC(=O)[C@@H](NC(=O)[C@H](CCCCN)NC(=O)[C@H](CCC(N)=O)NC(=O)[C@H](CC(C)C)NC(=O)[C@@H](NC(=O)[C@H](Cc1c[nH]c2ccccc12)NC(=O)[C@H](CCC(=O)O)NC(=O)[C@H](CCCCN)NC(=O)[C@H](CC(=O)O)NC(=O)COCCOCCNC(=O)COCCOCCNC(=O)CCCC[C@@H]1SC[C@@H]2NC(=O)N[C@@H]21)[C@@H](C)CC)[C@@H](C)CC)[C@@H](C)CC)C(C)C)C(=O)N[C@@H](Cc1ccc(O)cc1)C(=O)N[C@@H](CCC(=O)O)C(=O)N[C@@H](Cc1ccccc1)C(=O)N[C@@H](CCSC)C(=O)N[C@@H](CCCCN)C(=O)N[C@@H](CCCCN)C(=O)NCC(=O)N[C@@H](CC(=O)O)C(=O)N[C@@H](CCC(=O)O)C(=O)N[C@@H](CCCNC(=N)N)C(=O)N[C@@H](CC(C)C)C(=O)N[C@@H](CC(C)C)C(=O)N[C@@H](CCC(=O)O)C(=O)N[C@@H](CCC(=O)O)C(=O)N[C@@H](C)C(=O)N[C@@H](CCC(=O)O)C(=O)N[C@@H](CCCNC(=N)N)C(=O)N[C@@H](CC(C)C)C(=O)N[C@@H](CC(C)C)C(=O)N[C@@H](CCC(=O)O)C(=O)N[C@@H](CCC(=O)O)C(=O)N[C@H](C(=O)N[C@@H](CCC(=O)O)C(N)=O)C(C)C [LW25.3] | 13.3 ± 4.55 nM | > 500 nM |  | 5.94 ± 4.17 nM | 4.52 ± 0.43 nM | > 500 nM |  | 
CC[C@H](C)[C@@H]1NC(=O)[C@H](CC(C)C)NC(=O)[C@H](CC(=O)O)NC(=O)[C@H](CO)NC(=O)[C@H](C(C)C)NC(=O)[C@H](CCCNC(=N)N)NC(=O)[C@H](CCSC)NC(=O)[C@H](CO)NC(=O)[C@H](C)NC(=O)[C@H](CCC(=O)O)NC(=O)[C@H](C)NC(=O)[C@H](Cc2c[nH]cn2)NC(=O)CNC(=O)[C@H](CC(C)C)NC(=O)[C@H](CCC(=O)O)NC(=O)[C@H](CC(=O)O)NC(=O)[C@H](CC(C)C)NC(=O)[C@H](CC(C)C)NC(=O)[C@H](CCCNC(=N)N)NC(=O)[C@H](CCSC)NC(=O)[C@H]([C@@H](C)CC)NC(=O)[C@H](CCC(=O)O)NC(=O)[C@H](Cc2ccc(O)cc2)NC(=O)[C@H]([C@@H](C)CC)NC(=O)[C@H](CCCCN)NC(=O)[C@H](CCC(N)=O)NC(=O)[C@H](CC(C)C)NC(=O)[C@H]([C@@H](C)CC)NC(=O)[C@H](Cc2c[nH]c3ccccc23)NC(=O)[C@H](CCC(=O)O)NC(=O)[C@@H](NC(=O)COCCOCCNC(=O)CCCC[C@@H]2SC[C@@H]3NC(=O)N[C@@H]32)CSSC[C@@H](C(N)=O)NC(=O)[C@H](CCCCN)NC(=O)[C@H](CCCCN)NC(=O)[C@H](CCSC)NC(=O)[C@H](Cc2ccccc2)NC(=O)[C@H](CCC(=O)O)NC(=O)[C@H](Cc2ccc(O)cc2)NC1=O [LW25.13] | 1.35 ± 0.08 nM | > 500 nM | […] | 0.63 ± 0.24 nM | 0.68 ± 0.12 nM | > 500 nM | approximately three | 
CC[C@H](C)[C@H](NC(=O)[C@H](CC(C)C)NC(=O)[C@H](CC(=O)O)NC(=O)[C@H](CO)NC(=O)[C@@H](NC(=O)[C@H](CCCNC(=N)N)NC(=O)[C@H](CCSC)NC(=O)[C@H](CO)NC(=O)[C@H](C)NC(=O)[C@H](CCC(=O)O)NC(=O)[C@H](C)NC(=O)[C@H](Cc1c[nH]cn1)NC(=O)CNC(=O)[C@H](CC(C)C)NC(=O)[C@H](CCC(=O)O)NC(=O)[C@H](CC(=O)O)NC(=O)[C@H](CC(C)C)NC(=O)[C@H](CC(C)C)NC(=O)[C@H](CCCNC(=N)N)NC(=O)[C@H](CCSC)NC(=O)[C@@H](NC(=O)[C@H](CCC(=O)O)NC(=O)[C@H](Cc1ccc(O)cc1)NC(=O)[C@@H](NC(=O)[C@H](CCCCN)NC(=O)[C@H](CCC(N)=O)NC(=O)[C@H](CC(C)C)NC(=O)[C@@H](NC(=O)[C@H](Cc1c[nH]c2ccccc12)NC(=O)[C@H](CCC(=O)O)NC(=O)[C@H](CCCCN)NC(=O)[C@H](CC(=O)O)NC(=O)COCCOCCNC(=O)CCCC[C@@H]1SC[C@@H]2NC(=O)N[C@@H]21)[C@@H](C)CC)[C@@H](C)CC)[C@@H](C)CC)C(C)C)C(=O)N[C@@H](Cc1ccc(O)cc1)C(=O)N[C@@H](CCC(=O)O)C(=O)N[C@@H](Cc1ccccc1)C(=O)N[C@@H](CCSC)C(=O)N[C@@H](CCCCN)C(N)=O [LW32.2] | 6.15 ± 5.96 nM | > 500 nM | […] | 0.93 ± 0.24 nM | 1.54 ± 0.23 nM | > 500 nM | nine | 25
CC[C@H](C)[C@H](NC(=O)[C@H](CC(C)C)NC(=O)[C@H](CC(=O)O)NC(=O)[C@H](CO)NC(=O)[C@@H](NC(=O)[C@H](CCCNC(=N)N)NC(=O)[C@H](CCSC)NC(=O)[C@H](CO)NC(=O)[C@H](C)NC(=O)[C@H](CCC(=O)O)NC(=O)[C@H](C)NC(=O)[C@H](Cc1c[nH]cn1)NC(=O)CNC(=O)[C@H](CC(C)C)NC(=O)[C@H](CCC(=O)O)NC(=O)[C@H](CC(=O)O)NC(=O)[C@H](CC(C)C)NC(=O)[C@H](CC(C)C)NC(=O)[C@H](CCCNC(=N)N)NC(=O)[C@H](CCSC)NC(=O)[C@@H](NC(=O)[C@H](CCC(=O)O)NC(=O)[C@H](Cc1ccc(O)cc1)NC(=O)[C@@H](NC(=O)[C@H](CCCCN)NC(=O)[C@H](CCC(N)=O)NC(=O)[C@H](CC(C)C)NC(=O)[C@@H](NC(=O)[C@H](Cc1c[nH]c2ccccc12)NC(=O)[C@H](CCC(=O)O)NC(=O)[C@H](CCCCN)NC(=O)[C@H](CC(=O)O)NC(=O)COCCOCCNC(=O)CCCC[C@@H]1SC[C@@H]2NC(=O)N[C@@H]21)[C@@H](C)CC)[C@@H](C)CC)[C@@H](C)CC)C(C)C)C(=O)N[C@@H](Cc1ccc(O)cc1)C(=O)N[C@@H](CCC(=O)O)C(=O)N[C@@H](Cc1ccccc1)C(N)=O [LW32.4] | > 500 nM | > 500 nM | […] | 11.8 ± 3.5 nM | 10.2 ± 1.78 nM | > 500 nM |  | 

— PMC9181698 (International Journal of Molecular Sciences, 2022)
